The source of these data is patent publication US11739098B2 (BRISTOL-MYERS SQUIBB COMPANY, priority 2017, dated 2023).

Assay type in all cases: cell-based
One experiment concerns the target T1, human TLR7 (Homo sapiens, UniProt Q9NYK1).
T1 construct: host or cells: HEK-Blue cells (HEK293-derived reporter line)
T1 sequence (Q9NYK1 27-1049): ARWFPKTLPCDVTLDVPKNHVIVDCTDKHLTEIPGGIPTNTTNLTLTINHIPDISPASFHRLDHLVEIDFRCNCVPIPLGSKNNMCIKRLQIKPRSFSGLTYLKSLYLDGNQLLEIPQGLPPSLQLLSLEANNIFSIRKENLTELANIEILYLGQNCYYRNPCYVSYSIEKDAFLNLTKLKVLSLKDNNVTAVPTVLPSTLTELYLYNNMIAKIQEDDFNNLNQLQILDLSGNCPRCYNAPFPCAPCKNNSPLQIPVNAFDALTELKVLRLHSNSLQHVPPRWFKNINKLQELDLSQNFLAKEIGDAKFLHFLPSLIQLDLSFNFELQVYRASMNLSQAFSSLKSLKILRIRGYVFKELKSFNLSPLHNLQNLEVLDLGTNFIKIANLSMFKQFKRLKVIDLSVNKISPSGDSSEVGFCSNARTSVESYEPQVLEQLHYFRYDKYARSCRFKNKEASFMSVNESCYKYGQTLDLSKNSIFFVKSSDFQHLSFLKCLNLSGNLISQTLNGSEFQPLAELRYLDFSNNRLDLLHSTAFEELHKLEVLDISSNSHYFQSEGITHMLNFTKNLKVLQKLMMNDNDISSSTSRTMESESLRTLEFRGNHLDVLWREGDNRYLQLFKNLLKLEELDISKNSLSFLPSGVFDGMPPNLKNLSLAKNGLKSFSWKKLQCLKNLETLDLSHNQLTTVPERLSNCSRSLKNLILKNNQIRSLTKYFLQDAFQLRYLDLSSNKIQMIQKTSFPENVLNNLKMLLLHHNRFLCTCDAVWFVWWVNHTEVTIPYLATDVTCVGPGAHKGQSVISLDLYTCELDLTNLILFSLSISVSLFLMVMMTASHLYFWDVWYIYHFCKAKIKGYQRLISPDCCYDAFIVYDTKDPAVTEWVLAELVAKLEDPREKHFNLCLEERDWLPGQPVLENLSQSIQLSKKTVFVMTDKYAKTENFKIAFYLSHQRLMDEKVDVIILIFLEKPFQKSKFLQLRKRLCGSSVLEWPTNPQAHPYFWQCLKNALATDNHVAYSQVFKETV
Briefly: TLR7 inhibition reporter assay (HEK-Blue cells, SEAP reporter, gardiquimod stimulation). The following applies: HEK-Blue cells overexpressing human TLR7, SEAP reporter, gardiquimod 7.5 μM. Summed up: (§1)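 Agonists (final): TLR7 gardiquimod 7.5 μM; TLR8 R848 15.9 μM; TLR9 ODN2006 5 nM. HEK-Blue reporter cells, 30 min RT compound pre-incubation, 0.05 nM–50 μM dose range, 22 h at 37 °C, colorimetric SEAP detection medium. % inhibition relative to agonist+DMSO and known-inhibitor wells.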
On the technique in general: Reporter assays use an easily measured gene product as a stand-in for the process of interest.

A further experiment addresses T2, human TLR8 (Homo sapiens, UniProt Q9NR97).
T2 construct: host or cells: HEK-Blue cells (HEK293-derived reporter line)
T2 sequence (Q9NR97 27-1041): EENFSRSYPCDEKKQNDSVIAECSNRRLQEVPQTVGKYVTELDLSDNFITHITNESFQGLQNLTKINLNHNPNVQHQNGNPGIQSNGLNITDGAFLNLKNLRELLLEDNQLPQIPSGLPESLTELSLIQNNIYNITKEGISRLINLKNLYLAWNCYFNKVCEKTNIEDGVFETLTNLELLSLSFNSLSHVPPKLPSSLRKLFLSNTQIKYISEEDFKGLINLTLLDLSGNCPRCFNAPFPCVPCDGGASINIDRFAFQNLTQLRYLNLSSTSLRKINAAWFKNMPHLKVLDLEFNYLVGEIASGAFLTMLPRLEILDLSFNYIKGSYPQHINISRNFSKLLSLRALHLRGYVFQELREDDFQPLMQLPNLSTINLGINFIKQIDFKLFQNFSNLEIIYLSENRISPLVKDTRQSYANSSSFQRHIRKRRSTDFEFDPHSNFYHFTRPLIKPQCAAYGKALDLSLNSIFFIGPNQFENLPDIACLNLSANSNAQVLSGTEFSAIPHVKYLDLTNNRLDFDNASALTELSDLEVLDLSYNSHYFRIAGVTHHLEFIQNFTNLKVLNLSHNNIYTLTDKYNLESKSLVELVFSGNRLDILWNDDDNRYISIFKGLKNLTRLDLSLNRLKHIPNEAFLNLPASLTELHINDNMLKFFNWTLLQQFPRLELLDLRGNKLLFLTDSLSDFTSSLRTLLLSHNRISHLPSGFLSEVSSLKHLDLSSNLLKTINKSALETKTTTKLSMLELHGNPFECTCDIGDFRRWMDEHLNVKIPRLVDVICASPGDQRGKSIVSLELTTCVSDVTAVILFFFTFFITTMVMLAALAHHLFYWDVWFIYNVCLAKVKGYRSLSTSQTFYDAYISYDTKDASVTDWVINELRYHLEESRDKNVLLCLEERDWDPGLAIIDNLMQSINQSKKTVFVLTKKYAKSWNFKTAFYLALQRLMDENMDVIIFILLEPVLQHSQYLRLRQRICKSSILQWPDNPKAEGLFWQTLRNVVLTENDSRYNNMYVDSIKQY
Briefly: TLR8 inhibition reporter assay (HEK-Blue cells, SEAP reporter, R848 stimulation). The conditions noted are these: HEK-Blue cells overexpressing human TLR8, SEAP reporter, R848 15.9 μM. The essentials:
as §1

Another experiment concerns the target T3, human TLR9 (Homo sapiens, UniProt Q9NR96).
T3 construct: host or cells: HEK-Blue cells (HEK293-derived reporter line)
T3 sequence (Q9NR96 26-1032): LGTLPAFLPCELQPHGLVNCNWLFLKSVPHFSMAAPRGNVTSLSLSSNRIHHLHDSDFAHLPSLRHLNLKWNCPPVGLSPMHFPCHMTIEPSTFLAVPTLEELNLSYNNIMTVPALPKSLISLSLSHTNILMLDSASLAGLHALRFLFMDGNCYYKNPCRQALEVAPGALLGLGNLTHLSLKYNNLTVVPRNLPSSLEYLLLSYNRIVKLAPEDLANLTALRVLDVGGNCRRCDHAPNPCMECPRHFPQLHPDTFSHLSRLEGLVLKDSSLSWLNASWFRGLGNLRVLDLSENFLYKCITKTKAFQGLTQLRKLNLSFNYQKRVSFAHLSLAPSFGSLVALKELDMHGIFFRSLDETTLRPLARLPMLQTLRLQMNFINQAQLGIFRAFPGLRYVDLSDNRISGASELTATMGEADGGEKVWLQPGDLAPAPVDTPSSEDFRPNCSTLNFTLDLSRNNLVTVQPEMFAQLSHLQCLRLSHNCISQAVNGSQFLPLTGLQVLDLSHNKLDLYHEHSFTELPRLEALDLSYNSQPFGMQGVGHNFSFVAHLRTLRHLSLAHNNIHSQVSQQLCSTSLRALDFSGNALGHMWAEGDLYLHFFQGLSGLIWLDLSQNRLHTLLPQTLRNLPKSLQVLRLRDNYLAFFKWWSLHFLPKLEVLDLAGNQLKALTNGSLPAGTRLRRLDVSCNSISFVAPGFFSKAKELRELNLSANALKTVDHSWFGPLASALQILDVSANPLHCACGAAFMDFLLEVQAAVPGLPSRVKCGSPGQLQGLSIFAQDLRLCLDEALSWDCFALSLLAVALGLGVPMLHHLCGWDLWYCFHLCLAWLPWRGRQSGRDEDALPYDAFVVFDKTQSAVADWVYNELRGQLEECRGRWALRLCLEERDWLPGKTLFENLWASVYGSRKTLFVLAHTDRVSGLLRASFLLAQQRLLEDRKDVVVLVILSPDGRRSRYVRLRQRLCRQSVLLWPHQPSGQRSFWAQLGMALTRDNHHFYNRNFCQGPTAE
The experiment is described as follows: TLR9 inhibition reporter assay (HEK-Blue cells, SEAP reporter, ODN2006 stimulation). The following applies: HEK-Blue cells overexpressing human TLR9, SEAP reporter, ODN2006 5 nM. The essentials: as §1

Regarding `Cc1cc(-c2[nH]c3ccc(C4CCN(CCCS(C)(=O)=O)CC4)cc3c2C(C)C)cn2nnnc12` [Example 787, 6-(3-isopropyl-5-(1-(3-(methylsulfonyl)propyl)piperidin-4-yl)-1H-indol-2-yl)-8-methyltetrazolo[1,5-a]pyridine], the IC50 (commonly the midpoint of a concentration-inhibition curve) against human TLR7 was < 0.1 µM; against human TLR8, < 0.1 µM; against human TLR9, 1 to 50 µM.

Take `Cc1cc(-c2[nH]c3ccc(C4CCN(C5CCS(=O)(=O)CC5)CC4)cc3c2C(C)C)cn2nnnc12` [Example 788, 4-(4-(3-isopropyl-2-(8-methyltetrazolo[1,5-a]pyridin-6-yl)-1H-indol-5-yl)piperidin-1-yl)tetrahydro-2H-thiopyran 1,1-dioxide]: the figures for the IC50 against human TLR7, on human TLR8 and on human TLR9 were < 0.1 µM, < 0.1 µM and 1 to 50 µM, respectively.

Regarding `Cc1cc(-c2[nH]c3ccc(C4CCN(CCS(C)(=O)=O)CC4)cc3c2C(C)C)cn2nnnc12` [Example 789, 6-(3-isopropyl-5-(1-(2-(methylsulfonyl)ethyl)piperidin-4-yl)-1H-indol-2-yl)-8-methyltetrazolo[1,5-a]pyridine], the IC50 was < 0.1 µM on human TLR7, < 0.1 µM against human TLR8 and 1 to 50 µM against human TLR9.

`Cc1cc2nnnn2cc1-c1[nH]c2ccc(C3CCN(CCS(C)(=O)=O)CC3)cc2c1C(C)C` [Example 790, 6-(3-isopropyl-5-(1-(2-(methylsulfonyl)ethyl)piperidin-4-yl)-1H-indol-2-yl)-7-methyltetrazolo[1,5-a]pyridine]: the IC50 is < 0.1 µM at human TLR7, < 0.1 µM against human TLR8 and 1 to 50 µM against human TLR9.

With `Cc1cc2nnnn2cc1-c1[nH]c2ccc(C3CCN(C4CCS(=O)(=O)CC4)CC3)cc2c1C(C)C` [Example 791, 4-(4-(3-isopropyl-2-(7-methyltetrazolo[1,5-a]pyridin-6-yl)-1H-indol-5-yl)piperidin-1-yl)tetrahydro-2H-thiopyran 1,1-dioxide], the results for the IC50 at human TLR7, against human TLR8 and against human TLR9 were < 0.1 µM, < 0.1 µM and 1 to 50 µM, respectively.

Consider `Cc1nnn2ccc(-c3[nH]c4ccc(C5CCN(C6CCS(=O)(=O)CC6)CC5)cc4c3C(C)C)cc12` [Example 792, 4-(4-(3-isopropyl-2-(3-methyl-[1,2,3]triazolo[1,5-a]pyridin-5-yl)-1H-indol-5-yl)piperidin-1-yl)tetrahydro-2H-thiopyran 1,1-dioxide], for which the IC50 against human TLR7 was < 0.1 µM; at human TLR8 it was < 0.1 µM; at human TLR9 it was 1 to 50 µM.

Turning to `Cc1nnn2ccc(-c3[nH]c4ccc(C5CCN(CCS(C)(=O)=O)CC5)cc4c3C(C)C)cc12` [Example 793, 5-(3-isopropyl-5-(1-(2-(methylsulfonyl)ethyl)piperidin-4-yl)-1H-indol-2-yl)-3-methyl-[1,2,3]triazolo[1,5-a]pyridine], the IC50 against human TLR7 is < 0.1 µM; at human TLR8 it was < 0.1 µM; against human TLR9, 1 to 50 µM.

In the case of `Cc1cc(-c2[nH]c3ccc(C4CCN(C5CCS(=O)(=O)CC5)CC4)cc3c2C(C)C)cc2cnnn12` [Example 794, 4-(4-(3-isopropyl-2-(7-methyl-[1,2,3]triazolo[1,5-a]pyridin-5-yl)-1H-indol-5-yl)piperidin-1-yl)tetrahydro-2H-thiopyran 1,1-dioxide], the IC50 against human TLR7 is < 0.1 µM; on human TLR8, < 0.1 µM; on human TLR9, 1 to 50 µM.

For the compound `Cc1cc(-c2[nH]c3ccc(C4CCN(CCS(C)(=O)=O)CC4)cc3c2C(C)C)cc2cnnn12` [Example 795, 5-(3-isopropyl-5-(1-(2-(methylsulfonyl)ethyl)piperidin-4-yl)-1H-indol-2-yl)-7-methyl-[1,2,3]triazolo[1,5-a]pyridine], the IC50 at human TLR7 was < 0.1 µM; against human TLR8 it was < 0.1 µM; against human TLR9 it was 1 to 50 µM.

With `CC(C)c1c(-c2ccc(C#N)c3ncccc23)[nH]c2ccc(C3CCN(CCS(C)(=O)=O)CC3)cc12` [Example 796, 5-(3-isopropyl-5-(1-(2-(methylsulfonyl)ethyl)piperidin-4-yl)-1H-indol-2-yl)quinoline-8-carbonitrile], the IC50 against human TLR7 was < 0.1 µM; against human TLR8, < 0.1 µM; at human TLR9, 1 to 50 µM.

Take `COc1cc(-c2[nH]c3ccc(C4CCN(CCS(C)(=O)=O)CC4)cc3c2C(C)C)cc2ncnn12` [Example 797, 7-(3-isopropyl-5-(1-(2-(methylsulfonyl)ethyl)piperidin-4-yl)-1H-indol-2-yl)-5-methoxy-[1,2,4]triazolo[1,5-a]pyridine]: the values for the IC50 at human TLR7, against human TLR8 and against human TLR9 were < 0.1 µM, < 0.1 µM and 1 to 50 µM, respectively.

Regarding `CC(C)c1c(-c2cnc3ncnn3c2)[nH]c2ccc(C3CCN(C4CCS(=O)(=O)CC4)CC3)cc12` [Example 798, 4-(4-(2-([1,2,4]triazolo[1,5-a]pyrimidin-6-yl)-3-isopropyl-1H-indol-5-yl)piperidin-1-yl)tetrahydro-2H-thiopyran 1,1-dioxide], the IC50 against human TLR7 is < 0.1 µM; at human TLR8 it was < 0.1 µM; at human TLR9, 1 to 50 µM.
